Measurements taken from US20010039291A1, “Compositions and methods of treatment for cancer or viral infections” (The Procter & Gamble Company, priority 1995, published 2001).
In brackets after ≈: the same amount, converted by molar mass.

Tests used:
Rhinovirus, type A-1 = assay: In vitro screening for Rhinovirus; format: cell-based; details: cell line WI-38
From the text: The positive control was A-36683 of Abbot Company, (S,S)-1,2-bis(5-methoxy-2-benzimidazolyl)-1,2-ethanediol. […] (See Schleicher et al, Applied Microbiology, 23, No. 1, 113-116 (1972).

HT29 colon tumor cells = assay: MTT cell viability test, colon tumor cells; format: cell-based; details: Homo sapiens, HT-29, 120 h, about 5 day incubation, read-out: EC-50 Result
MX1 breast cells = assay: MTT cell viability test, breast tumor cells; format: cell-based; details: Homo sapiens, 120 h, about 5 day incubation, read-out: EC-50 Result
A549 lung tumor cells = assay: MTT cell viability test, lung tumor cells; format: cell-based; details: Homo sapiens, 120 h, about 5 day incubation, read-out: EC-50 Result
[1] = tested on: Human influenza virus, strain AT2/Taiwan/1/64; assay: Anti-viral evaluation with human influenza virus in mice; format: in vivo; details: oral lavage, observed 21 days after challenge
[2] = tested on: human tumor colony forming units; assay: In vitro human tumor colony forming units test; format: cell-based; details: for effectiveness against tumor types / tumors with ≦50% survival: continuous exposure
Procedure: Solid tumors removed by patients are minced into 2 to 5 mm fragments and immediately placed in McCoy's Medium 5A plus 10% heat inactivated newborn calf serum plus 1% penicillin/streptomycin. Within 4 hours, these solid tumors are mechanically disassociated with scissors, forced through No. 100 stainless steel mesh, through 25 gauge needles, and then washed with McCoy's medium as described above. Ascitic, pleural, pericardial fluids and bone marrow are obtained by standard techniques. The fluid or marrow is placed in sterile containers containing 10 units of preservative free heparin per ml. of malignant fluid or marrow. After centrifugation at 150×g for 10 minutes, the cells are harvested and washed with McCoy's medium plus 10% heat inactivated calf serum. The viability of cell suspensions is determined on a hemocytometer with trypan blue.
Cells to be cloned are suspended in 0.3% agar in enriched CMRL1066 supplemented with 15% heat inactivated horse serum, penicillin (100 units/ml), streptomycin (2 mg/ml), glutamine (2 mM), insulin (3 units/ml), asparagine (0.6 mg/ml), and HEPES buffer (2 mM). For the continuous exposure test each compound is added to the above mixture. Cells are placed in 35 mm petri dishes in a top layer of agar over an underlayer of agar to prevent growth of fibroblasts. Three plates are prepared for each data point. The plates are placed in a 37° C. incubator, and are removed on day 14 for counting of the number of colonies in each plate. The number of colonies (defined as 50 cells) formed in the 3 compound treated plates is compared to the number of colonies formed in the 3 control plates, and the percent colonies surviving at the concentration of compound can be estimated. Three positive control plates are used to determine survival rate. Orthosodium vanadate at 200 μg/ml is used as the positive control. If there is <30% colonies in the positive control when compared to the untreated control, the test is evaluated.

| Compound | therapeutic index (ratio of the toxic dose to the efficacious dose) (Rhinovirus, type A-1) | EC50 (HT29 colon tumor cells) [µg/mL] | EC50 (MX1 breast cells) [µg/mL] | EC50 (A549 lung tumor cells) [µg/mL] | mice survived ([1]; 175 mg/kg dose, saline control no mice survived) [%] | mice survived ([1]; 350 mg/kg dose) [%] | effective concentration (Rhinovirus, type A-1) [µg/mL] | effectiveness against tumors ([2]; 0.5 μg/ml, continuous exposure test) | tumors responding (effective/tested) ([2]; 0.5 μg/ml, single dose experiment) | effectiveness against tumor types ([2]; 5.0 μg/ml) | tumors with ≦50% survival ([2]; 5.0 μg/ml) | effectiveness against tumor types ([2]; 50.0 μg/ml) | tumors with ≦50% survival ([2]; 50.0 μg/ml) |
| --- | --- | --- | --- | --- | --- | --- | --- | --- | --- | --- | --- | --- | --- |
| COc1ccc2nc([C@H](O)[C@@H](O)c3nc4ccc(OC)cc4[nH]3)[nH]c2c1 [A-36683, (S,S)-1,2-bis(5-methoxy-2-benzimidazolyl)-1,2-ethanediol, reference compound] | 1000-3200 |  |  |  |  |  |  |  |  |  |  |  |  |
| CCCC1COC(Cn2cncn2)(c2ccc(Cl)cc2Cl)O1 (centres unmarked) [Propiconazole, 1-[2-(2,4-dichlorophenyl)4-propyl-1,3-dioxolan-2-ylmethyl]-1H-1,2,4-triazole] | 1-3 | 0.0331 (≈ 0.0967 µM) | 0.0284 (≈ 0.083 µM) | 0.113 (≈ 0.33 µM) | 40 | 57 | 32 | not effective | 0/1 | effective against breast, head and neck, melanoma and ovarian cancers | 5 of 26 | effective against breast, colon, head and neck, lung (non-small cell), melanoma, ovarian, stomach, and uterine cancers | 18 of 25 |
| COc1cccc2c1C(=O)c1c(O)c3c(c(O)c1C2=O)C[C@@](O)(C(=O)CO)C[C@@H]3O[C@H]1C[C@H](N)[C@H](O)[C@H](C)O1 [Adriamycin, reference compound] |  | 0.00639 (≈ 0.0118 µM) | 0.00078 (≈ 0.00144 µM) | 0.00373 (≈ 0.00686 µM) |  |  |  |  |  |  |  |  |  |
